Reference: publication PMC10791743, “Selective CK1α degraders exert antiproliferative activity against a broad range of human cancer cell lines” (Nature Communications, 2024)
“And” between values parts separate entries of the source, which are not always exact repeats. Equal entries are not always repeated.

Tests used:
MOLM-13 cells [1] = assay: MOLM-13 cell viability assay (CTG, 72 h); assay type: cell-based, human; design: key to Cell viability in MOLM-13 cells / cell viability, dose-response replicate values: % viability = 100 − % activity, normalized to controls; conditions: SJ0040 series
Method: The primary screen was performed in 384-well format using the CellTiter Glo (CTG) luminescent cell viability assay (Promega) as previously described. […] After overnight incubation at 37 °C in a humidified 5% CO2 incubator, cells were treated with compounds in dose–response format using a Pintool on a Biomek FX^P Laboratory Automation Workstation (Beckman Coulter). […] Luminescence signal was measured using an EnVision plate reader (PerkinElmer). […]
number per well and incubated overnight at 37 °C in a humidified 5 % CO2 incubator. Compounds were transferred to the assay plate from a dose-response plate using a Labcyte Echo 650 Acoustic Liquid Handler (Beckman Coulter , USA). […]
using Promega’s CellTiter-Glo reagent according to the manufacturer’s recommendation.
Luminescence was measured on the Envision plate reader (PerkinElmer, USA). Raw luminescence relative light unit (RLU) values for each compound at each concentration were normalized to obtain % activity using the following equation (1): 100 × [(mean(negctrl) – compound)/(mean (negctrl) – mean (posctrl))]. The % activity was converted to % viability using the following equation (2):
(100 – % activity), and then pooled from replicate experiments prior to fitting. Here, negctrl and posctrl refer to the negative (DMSO) and positive controls (staurosporine) on each plate. Dose-response curves were fit to the Hill equation using the GraphPad Prism (version 10). […]

MOLM-13 cells [2] = assay: Annexin-V staining for apoptosis, wild type MOLM-13; assay type: cell-based, human; conditions: for total apoptosis, flow cytometry: MOLM-13; for Late apoptosis, flow cytometry / Early apoptosis, flow cytometry: WT
Method: (§1) Wild type and CRBN^−/− MOLM-13 cells were grown in 12-well plates (TPP, Techno Plastic Products AG) with 500,000 cells per well in 2 ml total media volume. Cells were treated with 1 μl/ml DMSO or 1 μM compound in triplicate, and incubated for 24 or 72 h at 37 °C. To prepare samples, this buffer was used: 10 mM HEPES, 0.14 M NaCl, 2.5 mM CaCl2 pH 7.4, 2% v/v FBS in UltraPure water (Invitrogen). After incubation, samples were collected in 5-ml tubes for flow cytometry (Falcon). Single-stain controls consisted of ~150 μl of multiple samples combined. Wells were washed with 1 ml of buffer that was added to the corresponding sample tube. Cells were centrifuged at 500×g for 5 min at 4 °C to form a pellet. Supernatant was decanted and cells were washed again with 3 ml of buffer, then centrifuged. After decanting the supernatant, 3 μl of APC-conjugated anti-Annexin-V antibody (BioLegend) was added to each tube in the residual buffer left behind. Samples were mixed by vortex and incubated at room temperature in the dark for 20 min. Samples were then washed and centrifuged a final time, decanting the supernatant and blotting the tubes to remove residual buffer. 50 μl of buffer with DAPI was added to all appropriate samples and mixed, then analyzed by flow cytometry.
(§2) Supplementary Fig. 13: Gating for Annexin V flow cytometry analysis. Total cells were gated to remove cell debris, followed by single cell gating on the FSC-A/FSC-H diagonal. Within the single […]
(§3) Live cells are negative for both fluorescent markers, DAPI positive/APC negative cells are necrotic, APC positive/DAPI negative cells are still alive but in the early stages of apoptosis, and double positive cells are dead via apoptosis. Percentages of early and late apoptosis were plotted in supplementary figures 4 and 5.
(§4) (1 picture or pasted object on this page, not shown here)

CRBN−/− MOLM-13 cells = assay: Annexin-V staining for apoptosis, CRBN−/− MOLM-13; assay type: cell-based, human; conditions: for Late apoptosis, flow cytometry / Early apoptosis, flow cytometry: CRBN-/-; for total apoptosis, flow cytometry: MOLM-13 CRBN-/-
Method: as §1, §2, §3, §4

CK1α = CK1α (Homo sapiens, UniProt P48729+Q96SW2); assay: CK1α HiBiT live-cell kinetic degradation assay (HEK293 cells); assay type: cell-based; design: engineered by CRISPR/Cas9 to express endogenous CK1α (HEK293 cells) with a HiBiT tag; conditions: for CK1a Percent Maximum Degradation: listed as SJ10040
Sequence of CK1α (P48729 whole entry): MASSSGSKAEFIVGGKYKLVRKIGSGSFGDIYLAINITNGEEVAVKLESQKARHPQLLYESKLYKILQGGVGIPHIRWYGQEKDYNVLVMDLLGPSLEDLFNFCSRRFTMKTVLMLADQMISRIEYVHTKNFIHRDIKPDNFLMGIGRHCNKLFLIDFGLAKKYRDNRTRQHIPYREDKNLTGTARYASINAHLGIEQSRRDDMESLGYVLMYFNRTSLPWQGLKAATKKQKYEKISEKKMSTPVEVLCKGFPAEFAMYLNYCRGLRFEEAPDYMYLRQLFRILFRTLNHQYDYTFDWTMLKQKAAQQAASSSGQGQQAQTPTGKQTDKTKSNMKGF
Sequence of CK1α (Q96SW2 whole entry): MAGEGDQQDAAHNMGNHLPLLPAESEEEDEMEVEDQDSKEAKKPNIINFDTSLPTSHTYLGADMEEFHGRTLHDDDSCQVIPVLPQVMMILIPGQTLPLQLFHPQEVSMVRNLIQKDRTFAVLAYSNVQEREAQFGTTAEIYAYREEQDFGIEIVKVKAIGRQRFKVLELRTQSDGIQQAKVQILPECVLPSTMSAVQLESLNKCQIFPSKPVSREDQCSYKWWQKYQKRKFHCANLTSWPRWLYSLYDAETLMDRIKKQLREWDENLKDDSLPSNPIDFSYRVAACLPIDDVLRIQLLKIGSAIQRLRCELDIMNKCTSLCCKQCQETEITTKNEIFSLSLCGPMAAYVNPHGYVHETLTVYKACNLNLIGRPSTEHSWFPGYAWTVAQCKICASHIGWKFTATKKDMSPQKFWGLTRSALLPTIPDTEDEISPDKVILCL
Sequence of CK1α (Q16531 whole entry partner): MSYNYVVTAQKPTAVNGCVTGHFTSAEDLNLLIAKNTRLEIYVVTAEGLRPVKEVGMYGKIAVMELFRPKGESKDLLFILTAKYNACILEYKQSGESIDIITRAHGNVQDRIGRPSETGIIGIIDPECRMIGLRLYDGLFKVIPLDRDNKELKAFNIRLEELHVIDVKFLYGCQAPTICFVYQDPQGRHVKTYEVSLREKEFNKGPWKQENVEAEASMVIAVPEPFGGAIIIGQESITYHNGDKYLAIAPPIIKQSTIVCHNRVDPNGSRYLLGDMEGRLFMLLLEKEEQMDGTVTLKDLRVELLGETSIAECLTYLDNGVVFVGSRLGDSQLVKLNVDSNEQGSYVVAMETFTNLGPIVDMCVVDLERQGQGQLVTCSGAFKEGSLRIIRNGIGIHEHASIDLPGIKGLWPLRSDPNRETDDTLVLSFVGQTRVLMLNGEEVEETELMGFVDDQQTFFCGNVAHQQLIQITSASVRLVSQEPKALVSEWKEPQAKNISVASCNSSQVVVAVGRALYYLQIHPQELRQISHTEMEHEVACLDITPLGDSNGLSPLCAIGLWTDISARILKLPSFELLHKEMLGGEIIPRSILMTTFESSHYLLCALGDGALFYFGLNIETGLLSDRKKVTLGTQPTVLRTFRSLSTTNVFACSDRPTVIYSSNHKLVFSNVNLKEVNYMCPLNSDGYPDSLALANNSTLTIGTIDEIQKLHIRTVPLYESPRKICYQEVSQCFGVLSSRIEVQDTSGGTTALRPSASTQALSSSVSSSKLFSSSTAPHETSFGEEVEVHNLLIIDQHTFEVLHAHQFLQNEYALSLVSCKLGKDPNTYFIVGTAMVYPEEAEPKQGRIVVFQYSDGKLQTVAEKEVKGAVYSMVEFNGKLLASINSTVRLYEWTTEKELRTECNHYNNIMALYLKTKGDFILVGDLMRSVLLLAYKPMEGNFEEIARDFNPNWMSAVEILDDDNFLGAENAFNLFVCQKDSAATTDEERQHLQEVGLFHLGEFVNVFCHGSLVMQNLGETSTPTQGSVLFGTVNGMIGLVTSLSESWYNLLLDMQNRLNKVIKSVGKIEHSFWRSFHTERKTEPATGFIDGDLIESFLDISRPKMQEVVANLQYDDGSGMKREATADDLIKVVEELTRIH
Excerpt: To measure cellular protein levels, we used cell lines that have been engineered by CRISPR/Cas9 to express endogenous CK1α (HEK293 cells) or IKZF1 (Jurkat cells) with a HiBiT tag, which when coupled with LgBiT expression forms NanoBiT, a bioluminescent protein that can be used for kinetic studies of protein degradation. […] Cell viability was also monitored with CellTiter Glo 2.0 (Promega) at the completion of the experiment to ensure that loss of protein was not a consequence of a loss of cell viability.
IKZF1-HiBiT Jurkat LgBiT stable cells were seeded at 60,000 cells/well in 50% growth media/50% CO2 independent medium supplemented with 10% FBS and 1× Endurazine substrate. […] A dose–response curve was generated by performing 3-fold dilutions of each compound including a DMSO-only control in growth media. For live cell kinetic degradation assays, diluted compounds were added to CK1α and β-catenin plates and placed in a GloMax Discover (Promega, Cat. #GM3000) preheated to 37 °C or added to IKZF1 plates and placed in a CLARIOstar Plus (BMG LABTECH) preheated to 37 °C.
Relative protein level was determined based on normalization to the DMSO control and reported at Fractional RLUs. Degradation rate and degradation maximums were calculated from Fractional RLUs as previously described[38] using GraphPad Prism software. β-catenin stabilization time of onset for each concentration curve was calculated in GraphPad Prism by fitting an unconstrained plateau followed by one phase association model using the equation below (Y = IF(X < X0, Y0,Y0+(Plateau−Y0)*(1−exp(−K*(X−X0))))). The parameter, X0 was used as time of onset for each compound concentration.

CK1a Degradation Rate Constant (CK1α; 0.111 uM): 1.349 λ/hour
CK1a Percent Maximum Degradation (CK1α; 0.111 uM): 87.09% and 81.49% and 82.97%
CK1a Degradation Rate Constant (CK1α; 0.333 uM): 1.489 λ/hour
CK1a Percent Maximum Degradation (CK1α; 0.333 uM): 81.30% and 83.99% and 85.23%
CK1a Degradation Rate Constant (CK1α; 1 uM): 1.645 λ/hour
CK1a Percent Maximum Degradation (CK1α; 1 uM): 85.32% and 82.59% and 87.28%
CK1a Degradation Rate Constant (CK1α; 3 uM): 1.768 λ/hour
CK1a Percent Maximum Degradation (CK1α; 3 uM): 84.24% and 83.34% and 82.73%
CK1a Degradation Rate Constant (CK1α; 10 uM): 1.807 λ/hour
CK1a Percent Maximum Degradation (CK1α; 10 uM, replicates): 89.47% and 88.18% and 86.50%
Dmax at 0.111 µM (CK1α; CK1, 0.111 uM, read-out: CK1a Percent Maximum Degradation): 85.1%
Dmax at 0.333 µM (CK1α; CK1, 0.333 uM, read-out: CK1a Percent Maximum Degradation): 88.2%
Dmax at 1 µM (CK1α; CK1, 1 uM, read-out: CK1a Percent Maximum Degradation): 87.9%
Dmax at 3 µM (CK1α; CK1, 3 uM, read-out: CK1a Percent Maximum Degradation): 87.3%
Dmax at 10 µM (CK1α; CK1, 10 uM, replicates, read-out: CK1a Percent Maximum Degradation): 89%
CK1α degradation depth (HiBiT) (CK1α; HEK293): near-complete degradation
DC50 (CK1α; HEK293, at 4 h): 10 nM
Structure (SMILES): Cc1cccc(C(=O)Nc2ccc3c(c2)CN(C2CCC(=O)NC2=O)C3=O)c1 (stereo not shown) [SJ0040]
Cell viability in MOLM-13 cells (MOLM-13 cells [1]; Conc 0.000596098): 72.251 and 62.2023 and 81.3879
Cell viability in MOLM-13 cells (MOLM-13 cells [1]; Conc 0.0017883): 82.0109 and 75.8813 and 72.6272
Cell viability in MOLM-13 cells (MOLM-13 cells [1]; Conc 0.00536488): 61.7374 and 60.0676 and 62.6116
Cell viability in MOLM-13 cells (MOLM-13 cells [1]; Conc 0.0160947): 47.3097 and 40.7507 and 48.8062
Cell viability in MOLM-13 cells (MOLM-13 cells [1]; Conc 0.048284): 27.7074 and 26.3493 and 30.1451
Cell viability in MOLM-13 cells (MOLM-13 cells [1]; Conc 0.144852): 14.8484 and 15.2529 and 14.8047
Cell viability in MOLM-13 cells (MOLM-13 cells [1]; Conc 0.434556): 9.851 and 9.013 and 9.549
Cell viability in MOLM-13 cells (MOLM-13 cells [1]; Conc 1.30367): 6.737 and 6.253 and 6.807
Cell viability in MOLM-13 cells (MOLM-13 cells [1]; Conc 3.911): 4.756 and 5.128 and 7.933
Treatment-induced cell death (annexin-V) (MOLM-13 cells [2]; 1 μM, 72 h, vs DMSO): increased cell death
total apoptosis, flow cytometry (MOLM-13 cells [2]; SI_Fig 4c, DMSO 9.7, 8.6, 9.8): 14.9 and 12.6 and 13.6
total apoptosis, flow cytometry (MOLM-13 cells [2]; SI_Fig 5c, DMSO 8, 7.6, 6.1): 33.8 and 33.6 and 34.8
Late apoptosis, flow cytometry (MOLM-13 cells [2]; SI_Fig 4b, DMSO 3, 2.7, 3): 4.1 and 3.7 and 4.5
Early apoptosis, flow cytometry (MOLM-13 cells [2]; SI_Fig 4b, DMSO 6.8, 5.8, 6.8): 10.8 and 9 and 9.1
Late apoptosis, flow cytometry (MOLM-13 cells [2]; SI_Fig 5b, DMSO 1.5, 1.2, 1.2): 11.1 and 11.7 and 11.8
Early apoptosis, flow cytometry (MOLM-13 cells [2]; SI_Fig 5b, DMSO 6.5, 6.4, 4.9): 22.7 and 21.8 and 23.1
Effect on viability of CRBN−/− cells (annexin-V) (CRBN−/− MOLM-13 cells; 1 μM): no effect on the viability
Late apoptosis, flow cytometry (CRBN−/− MOLM-13 cells; SI_Fig 4b, DMSO 3.1, 3.5, 3.3): 3.1 and 2.5 and 2.8
Early apoptosis, flow cytometry (CRBN−/− MOLM-13 cells; SI_Fig 4b, DMSO 7.1, 7.5, 7.8): 7.6 and 5.6 and 6
Late apoptosis, flow cytometry (CRBN−/− MOLM-13 cells; SI_Fig 5b, DMSO 1.3, 1.9, 2): 2 and 1.5 and 1.3
Early apoptosis, flow cytometry (CRBN−/− MOLM-13 cells; SI_Fig 5b, DMSO 4.6, 5.9, 7.6): 5.5 and 5.1 and 4.5
total apoptosis, flow cytometry (CRBN−/− MOLM-13 cells; SI_Fig 4c, DMSO 10.2, 11.1, 11.2): 10.6 and 8.1 and 8.8
total apoptosis, flow cytometry (CRBN−/− MOLM-13 cells; SI_Fig 5c, DMSO 5.8, 7.8, 9.6): 7.5 and 6.5 and 5.9
